In PubChem BioAssay (NCI):
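Assay format: 96-well plates, 48-hour exposure. Definition used: TGI = concentration required for complete inhibition of growth.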

Columns and labels:
Assay in all cases: NCI tumour cell line growth inhibition, 48 h
SR leukemia = tested on: SR leukemia
HOP-62 NSCLC = tested on: HOP-62 NSCLC
UO-31 renal = tested on: UO-31 renal
COLO 205 colon = tested on: COLO 205 colon
TK-10 renal = tested on: TK-10 renal
SF-539 CNS = tested on: SF-539 CNS
HCT-116 colon = tested on: HCT-116 colon
T-47D breast = tested on: T-47D breast
A498 renal = tested on: A498 renal
PC-3 prostate = tested on: PC-3 prostate

Structure (SMILES) | TGI (SR leukemia) | TGI (HOP-62 NSCLC) | TGI (UO-31 renal) | TGI (COLO 205 colon) | TGI (TK-10 renal) | TGI (SF-539 CNS) | TGI (HCT-116 colon) | TGI (T-47D breast) | TGI (A498 renal) | TGI (PC-3 prostate)
CN(C)CC(/C(Cc1ccccc1)=N\NC(=S)NN)c1ccccc1 (stereo not drawn) | > 100 µM | > 100 µM | > 100 µM | > 100 µM | > 100 µM | > 100 µM | > 100 µM |  |  | 
CCOP(=O)(OCC)C(Cc1ccc(Cl)cc1)NS(=O)(=O)c1ccc(C)cc1 (stereo not drawn) |  | > 100 µM |  | > 100 µM | > 100 µM | > 100 µM |  | > 100 µM | > 100 µM | > 100 µM
O=C(Nc1nc2ncn(CCO)c2c(=O)[nH]1)c1ccccc1 | > 100 µM | > 100 µM | > 100 µM | > 100 µM | > 100 µM | > 100 µM | > 100 µM |  | > 100 µM | 
CC1CC(N2CCOCC2)=Nc2ccccc2N1Cc1ccccc1 (stereo not drawn) |  | > 100 µM | > 100 µM | > 100 µM | > 100 µM |  | > 100 µM |  | 52.3 µM | > 100 µM
Cc1ccc(S(=O)(=O)NC(=O)Nc2cc(Cl)c(S(N)(=O)=O)cc2S(N)(=O)=O)cc1 |  | > 100 µM | > 100 µM | > 100 µM | > 100 µM | > 100 µM | > 100 µM |  |  | 
Nc1c(Cl)cc(-c2nc3ccccc3s2)cc1Cl | > 100 µM | > 100 µM | > 100 µM | > 100 µM | > 100 µM | > 100 µM | > 100 µM | > 100 µM |  | > 100 µM
Nc1ccc(-c2nc3ccc(F)cc3s2)cc1I | > 100 µM | > 100 µM | > 100 µM | > 100 µM |  | > 100 µM | > 100 µM |  | > 100 µM | > 100 µM
O=c1n(-c2ccccc2)c(=O)n2c(-c3ccccc3)c(-c3ccccc3)n12 | > 100 µM | > 100 µM | > 100 µM | > 100 µM | > 100 µM | > 100 µM | > 100 µM |  | > 100 µM | > 100 µM
CC(=O)Nc1ccc(S(=O)(=O)NN(C)S(=O)(=O)c2ccc(C)cc2)cc1 | > 100 µM | > 100 µM | > 100 µM | > 100 µM | > 100 µM | > 100 µM | > 100 µM |  | > 100 µM | 
COc1cc(-c2cc(=O)c3ccccc3[nH]2)cc(OC)c1OC | > 75 µM | > 75 µM | > 75 µM | > 75 µM | > 75 µM | > 75 µM | > 75 µM |  |  | 
COC(=O)[C@@]1(NC(=O)C(CC(=O)OC(C)(C)C)NC(=O)OC(C)(C)C)C[C@H]1C (stereo partly drawn) |  | > 100 µM | > 100 µM | > 100 µM | > 100 µM | > 100 µM | > 100 µM | > 100 µM | > 100 µM | > 100 µM
C=C(C)CCC1CC=[N+]([O-])OC1C(C)(C)C (stereo not drawn) | > 100 µM | > 100 µM | 85.7 µM | > 100 µM | > 100 µM | > 100 µM | > 100 µM | 90.1 µM | > 100 µM | 
O/N=C1/CCCc2nonc21 | > 100 µM | > 100 µM | > 100 µM | > 100 µM | > 100 µM | > 100 µM | > 100 µM | > 100 µM |  | > 100 µM
S=C(N/N=C/c1ccccn1)N1CCCCCC1 | 0.93 µM |  | 4.76 µM |  | 38 µM | 0.305 µM |  |  | 0.735 µM | > 100 µM
Cc1ccc(S(=O)(=O)N2CC(CCN)c3ccccc32)cc1 (stereo not drawn) | > 100 µM | > 29.1 µM | 27.4 µM | 24.3 µM | > 51.1 µM | 8.59 µM | 25.6 µM |  | 40.6 µM | 29 µM
COc1cc(C(=O)O)c(-c2cc3c(cc2C=O)OCO3)c(OC)c1OC | > 10 µM | > 10 µM |  | > 10 µM | > 10 µM | > 10 µM | > 10 µM | > 10 µM |  | > 10 µM
COCCOCOC(C)(C)[C@H](CCO)O[Si](c1ccccc1)(c1ccccc1)C(C)(C)C | 16.3 µM |  | 26.9 µM | 33.9 µM | 23 µM | 27.4 µM | 14.1 µM |  | 31.6 µM | 
Oc1cccnc1/C=N/OCc1ccccc1 |  | > 100 µM | > 100 µM | > 100 µM | > 100 µM | > 100 µM | > 100 µM |  | > 100 µM | 
CNC(=O)CCCNC(=O)CCCC(=O)OC |  | > 100 µM | > 100 µM | > 100 µM | > 100 µM | > 100 µM | > 100 µM | > 100 µM | > 100 µM | > 100 µM
CNC(=O)N1N[C@H](c2ccccc2)[C@@H]1c1ccccc1 | 58.4 µM | > 100 µM | 74.4 µM | 38.8 µM | > 100 µM | 33.3 µM | 36.3 µM |  | 55.4 µM | 99.1 µM
O=C(O)C12CC3CC(CC(F)(C3)C1)C2 |  | > 100 µM | > 100 µM | > 100 µM | > 100 µM | > 100 µM | > 100 µM |  | > 100 µM | 
Cc1nc(N(C(C)C)C(C)C)c(C(C)C)o1 |  | > 100 µM | > 100 µM | > 100 µM | > 100 µM | > 100 µM | > 100 µM | > 100 µM | > 100 µM | > 100 µM
O=c1ccc2ccccc2c2ccccc12 | 4.66 µM | 11.2 µM | 13.8 µM | 18.3 µM | 28 µM | 4.09 µM | 11.4 µM |  | 52.2 µM | 
c1cc(CN2CCNCCNCCNCC2)cc(CN2CCNCCNCCNCC2)c1 | > 100 µM | > 100 µM | > 100 µM | > 100 µM | > 100 µM | > 100 µM | > 100 µM | > 100 µM |  | > 100 µM
O=C1CSC(c2ccccc2O)N1c1ccc(Oc2ccc(Cl)cc2)c(Cl)c1 (stereo not drawn) | 40.2 µM | 42.3 µM | 20.7 µM | 35 µM | > 100 µM | 32.9 µM | 28.6 µM | 46.8 µM |  | 60 µM
O=C1/C(=C/c2cccs2)NC(=S)N1CN1CCCCC1 | > 100 µM | > 100 µM | > 100 µM | 47.3 µM | > 100 µM |  | > 100 µM |  | > 100 µM | > 100 µM
